# According to patent US20240132457A1, “3-(2-(BENZO[D]THIAZOL-2-YL)-2-(PHENYLSUFONAMIDO)ETHYL)BENZIMIDAMIDE DERIVATIVES AND RELATED COMPOUNDS AS TMPRSS2 INHIBITORS FOR THE TREATMENT OF VIRAL INFECTIONS” (INTEGERBIO, INC., priority 2020, published 2024):
# Target: T1, Recombinant human TMPRSS2 protein (106-492 aa) (Homo sapiens, UniProt O15393)
# T1 construct: Human TMPRSS2-(AA 106-492)-; purchased CusaBio CSB-YP023924HU; host or cells: yeast
# Test: TMPRSS2 Assay 1 (Example 41), fluorogenic Boc-Gln-Ala-Arg-AMC cleavage
# Format: biochemical
# Conditions: TMPRSS2 10 nM, substrate 25 μM, 20 min pre-incubation
# Protocol: The enzyme (TMPRSS2, CusaBio cat #CSB-YP023924HU. Recombinant human TMPRSS2 protein (106-492 aa)N-terminal 6×His-tagged (“6×His” disclosed as SEQ ID NO: 4), expressed in yeast cells; MW=44.8 kDa, lyophilized from 20 mM: Tris HCl, 0.5 M NaCl, 6% Trehalose, pH 8.0, >85% purity as determined by SDS-PAGE. Uniprot: 015393; 10 nM in the reaction) and substrate (Boc-Gln-Ala-Arg-AMC; Enzo Cat #BML-P237-0005, MW=581.76 Da. 25 μM in the reaction) were prepared in Reaction Buffer (50 mM Tris-HCl pH 8, 150 mM NaCl, 0.005% Brij35, 1% DMSO). After the enzyme solution was delivered into the reaction well, the compounds in DMSO were delivered to the reaction mixture by using Acoustic Technology (Echo 550, LabCyte Inc. Sunnyvale, CA) in nanoliter range. After 20 min pre-incubation, the substrate solution was delivered into the reaction well to initiate the reaction. The enzyme activities were monitored every 5 min as a time-course measurement of the increase in fluorescence signal from fluorescently-labeled peptide substrate for 120 min. at room temperature. Data was analyzed by taking slope*(signal/time) of linear portion of measurement. The slope was calculated using Excel, and the curve fits were performed using Prism software.
# T1 sequence (O15393 106-492): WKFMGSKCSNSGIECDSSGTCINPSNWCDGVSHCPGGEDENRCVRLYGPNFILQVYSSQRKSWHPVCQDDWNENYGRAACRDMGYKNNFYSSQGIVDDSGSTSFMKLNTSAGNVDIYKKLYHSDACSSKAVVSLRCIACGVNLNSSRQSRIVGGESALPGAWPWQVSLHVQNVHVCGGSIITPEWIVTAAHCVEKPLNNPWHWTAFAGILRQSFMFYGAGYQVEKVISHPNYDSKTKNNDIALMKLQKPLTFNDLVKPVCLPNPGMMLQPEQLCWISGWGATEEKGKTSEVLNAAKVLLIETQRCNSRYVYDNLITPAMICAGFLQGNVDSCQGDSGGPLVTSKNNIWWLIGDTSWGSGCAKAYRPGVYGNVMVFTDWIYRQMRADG
row,Structure (SMILES),IC50 [µM]
1,"N=C(N)c1cccc(CC(NS(=O)(=O)c2cccc(-c3ccc(Cl)cc3Cl)c2)c2nc3ccccc3s2)c1 (single isomer, unassigned) [3 (enantiomer 1), 3-[2-(1,3-Benzothiazol-2-yl)-2-{2′,4′-dichloro-[1,1′-biphenyl]-3-sulfonamido}ethyl]benzene-1-carboximidamide]",> 10
2,"N=C(N)c1cccc(CC(NS(=O)(=O)c2cccc(-c3ccc(Cl)cc3Cl)c2)c2nc3ccccc3s2)c1 (single isomer, unassigned) [3 (enantiomer 2), 3-[2-(1,3-Benzothiazol-2-yl)-2-{2′,4′-dichloro-[1,1′-biphenyl]-3-sulfonamido}ethyl]benzene-1-carboximidamide]",< 10
3,"COc1ccc2nc(C(Cc3cccc(C(=N)N)c3)NS(=O)(=O)c3ccccc3)sc2c1 (single isomer, unassigned) [11 (enantiomer 1), 3-[2-Benzenesulfonamido-2-(6-methoxy-1,3-benzothiazol-2-yl)ethyl]benzene-1-carboximidamide]",> 10
4,"COc1ccc2nc(C(Cc3cccc(C(=N)N)c3)NS(=O)(=O)c3ccccc3)sc2c1 (single isomer, unassigned) [11 (enantiomer 2), 3-[2-Benzenesulfonamido-2-(6-methoxy-1,3-benzothiazol-2-yl)ethyl]benzene-1-carboximidamide]",< 10
5,"N=C(N)c1cccc(CC(NS(=O)(=O)c2ccccc2)c2nc3cc(C(F)(F)F)ccc3s2)c1 (single isomer, unassigned) [12 (enantiomer 1), 3-{2-Benzenesulfonamido-2-[5-(trifluoromethyl)-1,3-benzothiazol-2-yl]ethyl}benzene-1-carboximidamide]",> 10
6,"N=C(N)c1cccc(CC(NS(=O)(=O)c2ccccc2)c2nc3cc(C(F)(F)F)ccc3s2)c1 (single isomer, unassigned) [12 (enantiomer 2), 3-{2-Benzenesulfonamido-2-[5-(trifluoromethyl)-1,3-benzothiazol-2-yl]ethyl}benzene-1-carboximidamide]",< 10
7,"N=C(N)c1cccc(CC(NS(=O)(=O)c2ccccc2)c2nc3cccc(Cl)c3s2)c1 (single isomer, unassigned) [13 (enantiomer 2), 3-[2-Benzenesulfonamido-2-(7-chloro-1,3-benzothiazol-2-yl)ethyl]benzene-1-carboximidamide]",< 10
8,"N=C(N)c1cccc(CC(NS(=O)(=O)c2ccccc2)c2nc3ccccc3s2)c1 (single isomer, unassigned) [Compound 1 (enantiomer 1, batch 1), 3-[2-Benzenesulfonamido-2-(1,3-benzothiazol-2-yl)ethyl]benzene-1-carboximidamide]",> 10
9,"N=C(N)c1cccc(CC(NS(=O)(=O)c2ccccc2)c2nc3ccccc3s2)c1 (single isomer, unassigned) [Compound 1 (enantiomer 2, batch 1), 3-[2-Benzenesulfonamido-2-(1,3-benzothiazol-2-yl)ethyl]benzene-1-carboximidamide]",< 10
10,"N=C(N)c1cccc(CC(NS(=O)(=O)c2cccc(-c3ccc(Cl)cc3Cl)c2)c2nccs2)c1 (single isomer, unassigned) [Compound 5 (Isomer 3), 3-[2-{2′,4′-Dichloro-[1,1′-biphenyl]-3-sulfonamido}-2-(1,3-thiazol-2-yl)ethyl]benzene-1-carboximidamide]",< 10
11,"N=C(N)c1cccc(CC(NS(=O)(=O)c2cccc(Br)c2)c2nccs2)c1 (stereo not drawn) [Compound 4, 3-[2-(3-Bromobenzenesulfonamido)-2-(1,3-thiazol-2-yl)ethyl]benzene-1-carboximidamide]",> 10
12,"Cn1cnnc1[C@H](Cc1cccc(C(=N)N)c1)NS(=O)(=O)c1cccc(-c2ccc(Cl)cc2Cl)c1 [Compound 6, 3-[(2S)-2-{2′,4′-Dichloro-[1,1′-biphenyl]-3-sulfonamido}-2-(4-methyl-4H-1,2,4-triazol-3-yl)ethyl]benzene-1-carboximidamide]",> 10
13,"N=C(N)c1cccc(CC(NS(=O)(=O)c2ccccc2)c2ncc[nH]2)c1 (stereo not drawn) [Compound 7, 2-[2-{3-[Amino(iminiumyl)methyl]phenyl}-1-benzenesulfonamidoethyl]-1H-imidazol-3-ium dichloride]",> 10
14,"COc1ccc2nc(C(Cc3cccc(C(=N)N)c3)NS(=O)(=O)c3ccccc3)sc2c1 (stereo not drawn) [Compound 8, 3-[2-Benzenesulfonamido-2-(6-methoxy-1,3-benzothiazol-2-yl)ethyl]benzene-1-carboximidamide]",< 10
15,"N=C(N)c1cccc(CC(NS(=O)(=O)c2ccccc2)c2nc3c(s2)CNCC3)c1 (stereo not drawn) [Compound 10, 3-(2-Benzenesulfonamido-2-{4H,5H,6H,7H-[1,3]thiazolo[5,4-c]pyridin-2-yl}ethyl)benzene-1-carboximidamide]",> 10
16,"N=C(N)c1cccc(CC(NS(=O)(=O)c2ccccc2)c2nc3cc(C(F)(F)F)ccc3s2)c1 (stereo not drawn) [Compound 12, 3-{2-Benzenesulfonamido-2-[5-(trifluoromethyl)-1,3-benzothiazol-2-yl]ethyl}benzene-1-carboximidamide]",< 10
17,"N=C(N)c1cccc(CC(NS(=O)(=O)c2ccccc2)c2nc3cccc(Cl)c3s2)c1 (stereo not drawn) [Compound 13, 3-[2-Benzenesulfonamido-2-(7-chloro-1,3-benzothiazol-2-yl)ethyl]benzene-1-carboximidamide]",< 10

# Second part, the compound after the results:
row,IC50 [µM],Structure (SMILES)
1,< 10,"N=C(N)c1cccc(CC(NS(=O)(=O)c2cccc(-c3ccc(Cl)cc3Cl)c2)c2nccs2)c1 (single isomer, unassigned) [5 (Isomer 1, batch 1), 3-[2-{2′,4′-Dichloro-[1,1′-biphenyl]-3-sulfonamido}-2-(1,3-thiazol-2-yl)ethyl]benzene-1-carboximidamide]"
2,> 10,"N=C(N)c1cccc(CC(NS(=O)(=O)c2ccccc2)c2nc3cccc(Cl)c3s2)c1 (single isomer, unassigned) [13 (enantiomer 1), 3-[2-Benzenesulfonamido-2-(7-chloro-1,3-benzothiazol-2-yl)ethyl]benzene-1-carboximidamide]"
3,> 10,"N=C(N)c1cccc(CC(NS(=O)(=O)c2ccccc2)c2nc3ccc(C(F)(F)F)cc3s2)c1 (single isomer, unassigned) [14 (enantiomer 1)]"
4,< 10,"N=C(N)c1cccc(CC(NS(=O)(=O)c2ccccc2)c2nc3ccc(C(F)(F)F)cc3s2)c1 (single isomer, unassigned) [14 (enantiomer 2)]"
5,< 10,"N=C(N)c1cccc(CC(NS(=O)(=O)c2cccc(-c3ccc(Cl)cc3Cl)c2)c2nccs2)c1 (single isomer, unassigned) [Compound 5 (Isomer 2), 3-[2-{2′,4′-Dichloro-[1,1′-biphenyl]-3-sulfonamido}-2-(1,3-thiazol-2-yl)ethyl]benzene-1-carboximidamide]"
6,< 10,"N=C(N)c1cccc(C[C@H](NS(=O)(=O)c2ccccc2)c2nc3ccc(C(F)(F)F)cc3s2)c1 [14 (batch 1), 3-[(2S)-2-Benzenesulfonamido-2-[6-(trifluoromethyl)-1,3-benzothiazol-2-yl]ethyl]benzene-1-carboximidamide]"
7,< 10,"Cc1ccc2sc(C(Cc3cccc(C(=N)N)c3)NS(=O)(=O)c3ccccc3)nc2c1 (stereo not drawn) [Compound 9, 3-[2-Benzenesulfonamido-2-(5-methyl-1,3-benzothiazol-2-yl)ethyl]benzene-1-carboximidamide]"
8,< 10,"CN1CCN(c2cccc3nc(C(Cc4cccc(C(=N)N)c4)NS(=O)(=O)c4ccccc4)sc23)CC1 (stereo not drawn) [Compound 15, 3-{2-Benzenesulfonamido-2-[7-(4-methylpiperazin-1-yl)-1,3-benzothiazol-2-yl]ethyl}benzene-1-carboximidamide]"
9,> 10,"CN(C)CCN(C)c1cccc2nc(C(Cc3cccc(C(=N)N)c3)NS(=O)(=O)c3ccccc3)sc12 (stereo not drawn) [Compound 16, 3-[2-Benzenesulfonamido-2-(7-{[2-(dimethylamino)ethyl](methyl)amino}-1,3-benzothiazol-2-yl)ethyl]benzene-1-carboximidamide]"
10,< 10,"COCCN(C)c1cccc2nc(C(Cc3cccc(C(=N)N)c3)NS(=O)(=O)c3ccccc3)sc12 (stereo not drawn) [Compound 17, 3-(2-Benzenesulfonamido-2-{7-[(2-methoxyethyl)(methyl)amino]-1,3-benzothiazol-2-yl}ethyl)benzene-1-carboximidamide]"
11,< 10,"N=C(N)c1cccc(CC(NS(=O)(=O)c2ccccc2)c2nc3cnccc3s2)c1 (stereo not drawn) [Compound 18, 3-(2-Benzenesulfonamido-2-{[1,3]thiazolo[4,5-c]pyridin-2-yl}ethyl)benzene-1-carboximidamide]"
12,< 10,"N=C(N)c1cccc(CC(NS(=O)(=O)c2ccccc2)c2nc3cccnc3s2)c1 (stereo not drawn) [Compound 19, 3-(2-Benzenesulfonamido-2-{[1,3]thiazolo[5,4-b]pyridin-2-yl}ethyl)benzene-1-carboximidamide]"
13,< 10,"N=C(N)c1cccc(CC(NS(=O)(=O)c2ccccc2)c2nc3ccc(O)cc3s2)c1 (stereo not drawn) [Compound 20, 3-[2-(benzenesulfonamido)-2-(6-hydroxy-1,3-benzothiazol-2-yl)ethyl]benzamidine]"
